From patent US8846947B2, “Benzimidazoles and related analogs as sirtuin modulators” (GlaxoSmithKline LLC, priority 2008, dated 2014)

The molecules below were run against T1, SIRT1 (Homo sapiens, UniProt Q96EB6) (assay: Mass spectrometry based SIRT1 deacetylase activation assay (acetylated p53-derived peptide substrate)). Details: 0.5 μM peptide substrate, 120 μM βNAD+, 10 nM SIRT1, 25 minutes at 25° C.
T1 sequence (Q96EB6 1-747): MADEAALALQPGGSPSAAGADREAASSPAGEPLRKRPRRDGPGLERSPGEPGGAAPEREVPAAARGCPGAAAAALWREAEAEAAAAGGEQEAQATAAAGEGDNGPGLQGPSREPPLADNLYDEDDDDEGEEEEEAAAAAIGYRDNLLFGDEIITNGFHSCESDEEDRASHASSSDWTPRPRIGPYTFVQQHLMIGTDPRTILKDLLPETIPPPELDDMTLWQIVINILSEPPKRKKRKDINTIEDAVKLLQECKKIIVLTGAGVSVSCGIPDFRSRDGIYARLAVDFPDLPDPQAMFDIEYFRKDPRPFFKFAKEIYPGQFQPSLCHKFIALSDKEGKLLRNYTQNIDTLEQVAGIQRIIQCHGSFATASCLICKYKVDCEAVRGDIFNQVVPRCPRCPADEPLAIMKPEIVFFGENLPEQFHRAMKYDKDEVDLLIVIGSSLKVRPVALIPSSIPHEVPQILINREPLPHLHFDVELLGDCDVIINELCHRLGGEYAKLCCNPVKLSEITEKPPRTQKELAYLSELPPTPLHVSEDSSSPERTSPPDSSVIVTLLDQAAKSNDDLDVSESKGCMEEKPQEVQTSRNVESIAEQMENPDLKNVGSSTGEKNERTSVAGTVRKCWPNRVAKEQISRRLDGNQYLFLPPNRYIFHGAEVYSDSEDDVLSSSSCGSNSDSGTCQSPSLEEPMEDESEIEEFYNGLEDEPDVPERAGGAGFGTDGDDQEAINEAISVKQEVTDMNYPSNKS
Assay type: biochemical
O=C(Nc1cccnc1)c1cc(N2CCOCC2)cc2[nH]c(-c3ccc(F)cc3C(F)F)nc12 [Compound 751] was tested, and the EC1.5 was “A (EC1.5<1.0 uM)” and the “Fold Act. (percent maximum fold activation)” value was “A (Fold activation >200%)”. In the case of O=C(Nc1cccnn1)c1cc(N2CCOCC2)cc2[nH]c(-c3ccc(F)cc3C(F)F)nc12 [Compound 752], the EC1.5 is reported as “A (EC1.5<1.0 uM)” and the “Fold Act. (percent maximum fold activation)” value is reported as “A (Fold activation >200%)”. In the case of O=C(Nc1ccc(OC[C@@H](O)CO)cc1)c1cccc2[nH]c(-c3cccnc3)nc12 [Compound 753], the EC1.5 is reported as “A (EC1.5<1.0 uM)” and the “Fold Act. (percent maximum fold activation)” value is reported as “A (Fold activation >200%)”. For O=C(Nc1ccccc1)c1cccc2[nH]c(-c3ccc(Cl)cc3C(F)(F)F)nc12 [Compound 754], the EC1.5 was “A (EC1.5<1.0 uM)” and the “Fold Act. (percent maximum fold activation)” value was “A (Fold activation >200%)”. For O=C(Nc1ccccc1)c1cccc2[nH]c(-c3ccc(F)cc3C(F)(F)F)nc12 [Compound 755], the EC1.5 was “A (EC1.5<1.0 uM)” and the “Fold Act. (percent maximum fold activation)” value was “A (Fold activation >200%)”. In the case of O=C(Nc1ccccc1)c1cccc2[nH]c(-c3cc(F)ccc3C(F)(F)F)nc12 [Compound 756], the EC1.5 is reported as “A (EC1.5<1.0 uM)” and the “Fold Act. (percent maximum fold activation)” value is reported as “A (Fold activation >200%)”. O=C(Nc1nccs1)c1cncc2[nH]c(-c3ccc(OC[C@@H](O)CO)cc3C(F)(F)F)nc12 [Compound 758] was tested, and the EC1.5 was “A (EC1.5<1.0 uM)” and the “Fold Act. (percent maximum fold activation)” value was “A (Fold activation >200%)”. In the case of Cc1cnc(NC(=O)c2cncc3[nH]c(-c4ccc(OC[C@@H](O)CO)cc4C(F)(F)F)nc23)s1 [Compound 759], the EC1.5 is reported as “A (EC1.5<1.0 uM)” and the “Fold Act. (percent maximum fold activation)” value is reported as “A (Fold activation >200%)”. With O=C(Nc1ccccn1)c1cncc2[nH]c(-c3ccc(OC[C@@H](O)CO)cc3C(F)(F)F)nc12 [Compound 760] the EC1.5 was “A (EC1.5<1.0 uM)” and the “Fold Act. (percent maximum fold activation)” value was “A (Fold activation >200%)”. In the case of O=C(Nc1nccs1)c1cncc2[nH]c(-c3ccc(OC[C@H](O)CO)cc3C(F)(F)F)nc12 [Compound 761], the EC1.5 is reported as “A (EC1.5<1.0 uM)” and the “Fold Act. (percent maximum fold activation)” value is reported as “A (Fold activation >200%)”. Cc1cnc(NC(=O)c2cncc3[nH]c(-c4ccc(OC[C@H](O)CO)cc4C(F)(F)F)nc23)s1 [Compound 762] was tested, and the EC1.5 was “A (EC1.5<1.0 uM)” and the “Fold Act. (percent maximum fold activation)” value was “A (Fold activation >200%)”. For O=C(Nc1ccccn1)c1cncc2[nH]c(-c3ccc(OC[C@H](O)CO)cc3C(F)(F)F)nc12 [Compound 763], the EC1.5 was “A (EC1.5<1.0 uM)” and the “Fold Act. (percent maximum fold activation)” value was “A (Fold activation >200%)”. O=C(Nc1nccs1)c1cccc2nc(-c3ccc(N4CCCC4)cc3C(F)F)[nH]c12 [Compound 764] was tested, and the EC1.5 was “A (EC1.5<1.0 uM)” and the “Fold Act. (percent maximum fold activation)” value was “A (Fold activation >200%)”. For Cc1cnc(NC(=O)c2cccc3nc(-c4ccc(N5CCCC5)cc4C(F)F)[nH]c23)s1 [Compound 765], the EC1.5 was “A (EC1.5<1.0 uM)” and the “Fold Act. (percent maximum fold activation)” value was “A (Fold activation >200%)”. For O=C(Nc1ccccn1)c1cccc2nc(-c3ccc(N4CCCC4)cc3C(F)F)[nH]c12 [Compound 766], the EC1.5 was “B (EC1.5 1-25 uM)” and the “Fold Act. (percent maximum fold activation)” value was “A (Fold activation >200%)”. In the case of O=C(Nc1cccnc1)c1cc(N2CCOCC2)cc2[nH]c(-c3cc(F)ccc3C(F)F)nc12 [Compound 767], the EC1.5 is reported as “A (EC1.5<1.0 uM)” and the “Fold Act. (percent maximum fold activation)” value is reported as “A (Fold activation >200%)”. O=C(Nc1nccs1)c1cc(N2CCOCC2)cc2[nH]c(-c3cc(F)ccc3C(F)F)nc12 [Compound 768] was tested, and the EC1.5 was “A (EC1.5<1.0 uM)” and the “Fold Act. (percent maximum fold activation)” value was “A (Fold activation >200%)”. O=C(Nc1ccccn1)c1cc(N2CCOCC2)cc2[nH]c(-c3cc(F)ccc3C(F)F)nc12 [Compound 769] was tested, and the EC1.5 was “A (EC1.5<1.0 uM)” and the “Fold Act. (percent maximum fold activation)” value was “A (Fold activation >200%)”. For O=C(Nc1cccnn1)c1cc(N2CCOCC2)cc2[nH]c(-c3cc(F)ccc3C(F)F)nc12 [Compound 770], the EC1.5 was “A (EC1.5<1.0 uM)” and the “Fold Act. (percent maximum fold activation)” value was “A (Fold activation >200%)”. With O=C(Nc1nccs1)c1cncc2nc(-c3ccc(OC[C@@H](O)CO)cc3C(F)F)[nH]c12 [Compound 771] the EC1.5 was “A (EC1.5<1.0 uM)” and the “Fold Act. (percent maximum fold activation)” value was “A (Fold activation >200%)”. For Cc1cnc(NC(=O)c2cncc3nc(-c4ccc(OC[C@@H](O)CO)cc4C(F)F)[nH]c23)s1 [Compound 772], the EC1.5 was “A (EC1.5<1.0 uM)” and the “Fold Act. (percent maximum fold activation)” value was “A (Fold activation >200%)”. With O=C(Nc1ccccn1)c1cncc2[nH]c(-c3ccc(OC[C@@H](O)CO)cc3C(F)F)nc12 [Compound 773] the EC1.5 was “A (EC1.5<1.0 uM)” and the “Fold Act. (percent maximum fold activation)” value was “A (Fold activation >200%)”. For O=C(Nc1cccnc1)c1cccc2[nH]c(-c3ccc(N4CCCC4)cc3C(F)F)nc12 [Compound 774], the EC1.5 was “A (EC1.5<1.0 uM)” and the “Fold Act. (percent maximum fold activation)” value was “A (Fold activation >200%)”. In the case of O=C(Nc1cccnn1)c1cccc2[nH]c(-c3ccc(N4CCCC4)cc3C(F)F)nc12 [Compound 775], the EC1.5 is reported as “A (EC1.5<1.0 uM)” and the “Fold Act. (percent maximum fold activation)” value is reported as “A (Fold activation >200%)”. O=C(Nc1ccncn1)c1cccc2[nH]c(-c3ccc(N4CCCC4)cc3C(F)F)nc12 [Compound 776] was tested, and the EC1.5 was “A (EC1.5<1.0 uM)” and the “Fold Act. (percent maximum fold activation)” value was “A (Fold activation >200%)”. O=C(Nc1ccc(OC[C@H](O)CO)cc1)c1cccc2[nH]c(-c3cccc(N4CCOCC4)c3)nc12 [Compound 777] was tested, and the EC1.5 was “A (EC1.5<1.0 uM)” and the “Fold Act. (percent maximum fold activation)” value was “A (Fold activation >200%)”. O=C(Nc1ccc(OC[C@H](O)CO)cc1)c1cccc2[nH]c(-c3cccc(N4CCCC4)c3)nc12 [Compound 778] was tested, and the EC1.5 was “A (EC1.5<1.0 uM)” and the “Fold Act. (percent maximum fold activation)” value was “A (Fold activation >200%)”. For O=C(Nc1cccc(OC[C@H](O)CO)c1)c1cccc2[nH]c(-c3ccc(N4CC[C@H](F)C4)cc3C(F)(F)F)nc12 [Compound 779], the EC1.5 was “A (EC1.5<1.0 uM)” and the “Fold Act. (percent maximum fold activation)” value was “A (Fold activation >200%)”. In the case of O=C(Nc1ncc(CN2CCOCC2)s1)c1cccc2[nH]c(-c3ccccc3C(F)(F)F)nc12 [Compound 780, N-(5-(morpholinomethyl)thiazol-2-yl)-2-(2-(trifluoromethyl)phenyl)-1H-benzo[d]imidazole-4-carboxamide], the EC1.5 is reported as “C (EC1.5 >25 uM)” and the “Fold Act. (percent maximum fold activation)” value is reported as “B (Fold Activation <200%)”. With O=C(Nc1cccc(OC[C@H](O)CO)c1)c1cccc2[nH]c(-c3cccc(F)c3)nc12 [Compound 781] the EC1.5 was “A (EC1.5<1.0 uM)” and the “Fold Act. (percent maximum fold activation)” value was “A (Fold activation >200%)”. In the case of O=C(Nc1cccc(OC[C@H](O)CO)c1)c1cccc2[nH]c(-c3cccc(Cl)c3)nc12 [Compound 782], the EC1.5 is reported as “A (EC1.5<1.0 uM)” and the “Fold Act. (percent maximum fold activation)” value is reported as “A (Fold activation >200%)”. With O=C(Nc1cccc(OC[C@H](O)CO)c1)c1cccc2[nH]c(-c3ccncc3)nc12 [Compound 783] the EC1.5 was “A (EC1.5<1.0 uM)” and the “Fold Act. (percent maximum fold activation)” value was “A (Fold activation >200%)”. With O=C(Nc1cccc(OC[C@H](O)CO)c1)c1cccc2[nH]c(-c3ccccc3F)nc12 [Compound 784] the EC1.5 was “A (EC1.5<1.0 uM)” and the “Fold Act. (percent maximum fold activation)” value was “A (Fold activation >200%)”. For O=C(Nc1cccc(OC[C@H](O)CO)c1)c1cccc2[nH]c(-c3cc(F)ccc3F)nc12 [Compound 785], the EC1.5 was “A (EC1.5<1.0 uM)” and the “Fold Act. (percent maximum fold activation)” value was “A (Fold activation >200%)”. With O=C(Nc1cccc(OC[C@H](O)CO)c1)c1cccc2[nH]c(-c3cc(F)cc(F)c3)nc12 [Compound 786] the EC1.5 was “A (EC1.5<1.0 uM)” and the “Fold Act. (percent maximum fold activation)” value was “A (Fold activation >200%)”. O=C(Nc1ccc(OC[C@@H](O)CO)cc1)c1cccc2[nH]c(-c3cccc(N4CCOCC4)c3)nc12 [Compound 787] was tested, and the EC1.5 was “A (EC1.5<1.0 uM)” and the “Fold Act. (percent maximum fold activation)” value was “A (Fold activation >200%)”. In the case of O=C(Nc1ccc(OC[C@@H](O)CO)cc1)c1cccc2[nH]c(-c3cccc(N4CCCC4)c3)nc12 [Compound 788], the EC1.5 is reported as “A (EC1.5<1.0 uM)” and the “Fold Act. (percent maximum fold activation)” value is reported as “A (Fold activation >200%)”. Cc1nc(C)c(-c2nc3c(C(=O)Nc4ccc(OC[C@@H](O)CO)cc4)cccc3[nH]2)s1 [Compound 789] was tested, and the EC1.5 was “A (EC1.5<1.0 uM)” and the “Fold Act. (percent maximum fold activation)” value was “A (Fold activation >200%)”. For Cc1cnc(NC(=O)c2cc(N3CCCC3)cc3[nH]c(-c4ccccc4C(F)F)nc23)s1 [Compound 790], the EC1.5 was “A (EC1.5<1.0 uM)” and the “Fold Act. (percent maximum fold activation)” value was “A (Fold activation >200%)”. In the case of O=C(Nc1ccccn1)c1cc(N2CCCC2)cc2[nH]c(-c3ccccc3C(F)F)nc12 [Compound 791], the EC1.5 is reported as “A (EC1.5<1.0 uM)” and the “Fold Act. (percent maximum fold activation)” value is reported as “A (Fold activation >200%)”. With O=C(Nc1cccnc1)c1cc(N2CCCC2)cc2[nH]c(-c3ccccc3C(F)F)nc12 [Compound 792] the EC1.5 was “A (EC1.5<1.0 uM)” and the “Fold Act. (percent maximum fold activation)” value was “A (Fold activation >200%)”. For Cc1cc(OC[C@H](O)CO)ccc1-c1nc2c(C(=O)Nc3nccs3)cccc2[nH]1 [Compound 793], the EC1.5 was “A (EC1.5<1.0 uM)” and the “Fold Act. (percent maximum fold activation)” value was “A (Fold activation >200%)”.
